Test results published in PubChem BioAssay (NCI).
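Method: 48-hour compound exposure of cells in 96-well plates, five concentrations, linear interpolation of endpoints. GI50: concentration for 50% inhibition of growth. TGI marks complete inhibition of growth.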

How the values were obtained:
Assay in all cases: growth of human tumour cells (NCI), 48 h; in the data active = GI50 below about 0.43 µM; inactive = the rest
786-0 renal = tested on: 786-0 renal
A498 renal = tested on: A498 renal
A549 NSCLC = tested on: A549 NSCLC
ACHN renal = tested on: ACHN renal
BT-549 breast = tested on: BT-549 breast
CAKI-1 renal = tested on: CAKI-1 renal
CCRF-CEM leukemia = tested on: CCRF-CEM leukemia
COLO 205 colon = tested on: COLO 205 colon
DU-145 prostate = tested on: DU-145 prostate
EKVX NSCLC = tested on: EKVX NSCLC
HCC-2998 colon = tested on: HCC-2998 colon
HCT-116 colon = tested on: HCT-116 colon
HCT-15 colon = tested on: HCT-15 colon
HL-60(TB) leukemia = tested on: HL-60(TB) leukemia
HOP-62 NSCLC = tested on: HOP-62 NSCLC
HOP-92 NSCLC = tested on: HOP-92 NSCLC
HS 578T breast = tested on: HS 578T breast
HT29 colon = tested on: HT29 colon
IGROV1 ovarian = tested on: IGROV1 ovarian
K-562 leukemia = tested on: K-562 leukemia
KM12 colon = tested on: KM12 colon
LOX IMVI melanoma = tested on: LOX IMVI melanoma
M14 melanoma = tested on: M14 melanoma
MALME-3M melanoma = tested on: MALME-3M melanoma
MCF7 breast = tested on: MCF7 breast
MDA-MB-231 breast = tested on: MDA-MB-231 breast
MOLT-4 leukemia = tested on: MOLT-4 leukemia
NCI-H226 lung = tested on: NCI-H226 lung
NCI-H23 lung = tested on: NCI-H23 lung
NCI-H460 lung = tested on: NCI-H460 lung
NCI-H522 lung = tested on: NCI-H522 lung
NCI/ADR-RES ovarian = tested on: NCI/ADR-RES ovarian
OVCAR-3 ovarian = tested on: OVCAR-3 ovarian
OVCAR-4 ovarian = tested on: OVCAR-4 ovarian
OVCAR-5 ovarian = tested on: OVCAR-5 ovarian
OVCAR-8 ovarian = tested on: OVCAR-8 ovarian
PC-3 prostate = tested on: PC-3 prostate
RPMI-8226 leukemia = tested on: RPMI-8226 leukemia
RXF 393 renal = tested on: RXF 393 renal
SF-268 CNS = tested on: SF-268 CNS
SF-295 CNS = tested on: SF-295 CNS
SF-539 CNS = tested on: SF-539 CNS
SK-MEL-2 melanoma = tested on: SK-MEL-2 melanoma
SK-MEL-28 melanoma = tested on: SK-MEL-28 melanoma
SK-MEL-5 melanoma = tested on: SK-MEL-5 melanoma
SK-OV-3 ovarian = tested on: SK-OV-3 ovarian
SN12C renal = tested on: SN12C renal
SNB-19 CNS = tested on: SNB-19 CNS
SNB-75 CNS = tested on: SNB-75 CNS
SW-620 colon = tested on: SW-620 colon
TK-10 renal = tested on: TK-10 renal
U251 CNS = tested on: U251 CNS
UACC-257 melanoma = tested on: UACC-257 melanoma
UACC-62 melanoma = tested on: UACC-62 melanoma
UO-31 renal = tested on: UO-31 renal

COc1cc2c(c(OC)c1OC)-c1cc(I)c(O)cc1[C@@H](NC(C)=O)CC2
> 100000 nM: TGI (786-0 renal) | TGI (ACHN renal) | TGI (CAKI-1 renal) | TGI (CCRF-CEM leukemia) | TGI (EKVX NSCLC) | TGI (HCT-15 colon) | TGI (HOP-62 NSCLC) | TGI (K-562 leukemia) | TGI (LOX IMVI melanoma) | TGI (MALME-3M melanoma) | TGI (MCF7 breast) | TGI (MOLT-4 leukemia) | TGI (NCI-H23 lung) | TGI (NCI-H522 lung) | TGI (OVCAR-4 ovarian) | TGI (OVCAR-5 ovarian) | TGI (OVCAR-8 ovarian) | TGI (PC-3 prostate) | TGI (RXF 393 renal) | TGI (SF-295 CNS) | TGI (SK-MEL-2 melanoma) | TGI (SK-MEL-28 melanoma) | TGI (SN12C renal) | TGI (SNB-19 CNS) | TGI (SW-620 colon) | TGI (TK-10 renal) | TGI (U251 CNS) | TGI (UACC-257 melanoma) | TGI (UACC-62 melanoma)
19400 nM: TGI (HCT-116 colon)
69 nM: TGI (HL-60(TB) leukemia)
10900 nM: TGI (HOP-92 NSCLC)
41100 nM: TGI (SF-268 CNS)
1360 nM: TGI (KM12 colon)
inactive: GI50 (CAKI-1 renal) 3580 nM | GI50 (MALME-3M melanoma) > 100000 nM | GI50 (NCI/ADR-RES ovarian) 681 nM | GI50 (SK-MEL-2 melanoma) 23100 nM | GI50 (SK-MEL-28 melanoma) 999 nM | GI50 (TK-10 renal) > 44600 nM | GI50 (UACC-257 melanoma) 49100 nM | GI50 (UO-31 renal) 556 nM
active: GI50 (786-0 renal) 61.4 nM | GI50 (A498 renal) 45.9 nM | GI50 (A549 NSCLC) 69.5 nM | GI50 (ACHN renal) 383 nM | GI50 (BT-549 breast) 134 nM | GI50 (CCRF-CEM leukemia) 36.4 nM | GI50 (COLO 205 colon) 38.5 nM | GI50 (DU-145 prostate) 39.8 nM | GI50 (EKVX NSCLC) 419 nM | GI50 (HCC-2998 colon) 65.5 nM | GI50 (HCT-116 colon) 40.9 nM | GI50 (HCT-15 colon) 118 nM | GI50 (HL-60(TB) leukemia) 25.4 nM | GI50 (HOP-62 NSCLC) 179 nM | GI50 (HOP-92 NSCLC) 63.9 nM | GI50 (HS 578T breast) 29 nM | GI50 (HT29 colon) 36 nM | GI50 (IGROV1 ovarian) 137 nM | GI50 (K-562 leukemia) 32.4 nM | GI50 (KM12 colon) 43.2 nM | GI50 (LOX IMVI melanoma) 75 nM | GI50 (M14 melanoma) 31.1 nM | GI50 (MCF7 breast) 33.6 nM | GI50 (MDA-MB-231 breast) 85.9 nM | GI50 (MOLT-4 leukemia) 43.7 nM | GI50 (NCI-H226 lung) 299 nM | GI50 (NCI-H23 lung) 46 nM | GI50 (NCI-H460 lung) 35.6 nM | GI50 (NCI-H522 lung) 48.4 nM | GI50 (OVCAR-3 ovarian) 25.8 nM | GI50 (OVCAR-4 ovarian) 105 nM | GI50 (OVCAR-5 ovarian) 237 nM | GI50 (OVCAR-8 ovarian) 187 nM | GI50 (PC-3 prostate) 39.5 nM | GI50 (RPMI-8226 leukemia) 35 nM | GI50 (RXF 393 renal) 49.6 nM | GI50 (SF-268 CNS) 66.6 nM | GI50 (SF-295 CNS) 37 nM | GI50 (SF-539 CNS) 31.4 nM | GI50 (SK-MEL-5 melanoma) 35.8 nM | GI50 (SK-OV-3 ovarian) 47.6 nM | GI50 (SN12C renal) 106 nM | GI50 (SNB-19 CNS) 67.9 nM | GI50 (SNB-75 CNS) 33.2 nM | GI50 (SW-620 colon) 39 nM | GI50 (U251 CNS) 48.3 nM | GI50 (UACC-62 melanoma) 44.8 nM
5500 nM: TGI (A498 renal)
178 nM: TGI (SF-539 CNS)
62.3 nM: TGI (OVCAR-3 ovarian)
> 65800 nM: TGI (SK-OV-3 ovarian)
3000 nM: TGI (HCC-2998 colon)
10700 nM: TGI (HT29 colon)
> 20300 nM: TGI (NCI/ADR-RES ovarian)
292 nM: TGI (DU-145 prostate)
> 40100 nM: TGI (A549 NSCLC)
> 31600 nM: TGI (IGROV1 ovarian)
> 92500 nM: TGI (SNB-75 CNS)
96.9 nM: TGI (M14 melanoma)
99200 nM: TGI (NCI-H226 lung)
4990 nM: TGI (NCI-H460 lung)
2950 nM: TGI (BT-549 breast)
2530 nM: TGI (RPMI-8226 leukemia)
244 nM: TGI (SK-MEL-5 melanoma)
155 nM: TGI (COLO 205 colon)
